The results in this text go back to ChEMBL document CHEMBL4251736, “Discovery of Novel Diarylpyrimidine Derivatives as Potent HIV-1 NNRTIs Targeting the "NNRTI Adjacent" Binding Site” (ACS Med Chem Lett, 2018).

The structures appear in SMILES notation. Activity calls are given as the source filed them. The rule behind the calls is not given here.

Data set [1] concerns Human immunodeficiency virus 1. Nature of the data set: Potency index, ratio of etravirine EC50 to compound EC50 for HIV1 harboring reverse transcriptase Y188L mutant infected in human MT4 cells. It counts as functional.
The subject of data set [2] is Human immunodeficiency virus 1. Nature of the data set: Potency index, ratio of etravirine EC50 to compound EC50 for HIV1 harboring reverse transcriptase Y181C mutant infected in human MT4 cells. In kind it is functional.
Data set [3] has as its system Human immunodeficiency virus 1. Nature of the data set: Antiviral activity against HIV1 harboring reverse transcriptase E138K mutant infected in human MT4 cells assessed as inhibition of viral replication after 5 days by MTT assay. It counts as functional, organism-based. As to conditions: Human immunodeficiency virus 1, MT4, 120 h.
Data set [4] has as its system Human immunodeficiency virus 1. Nature of the data set: Antiviral activity against HIV1 RES056 harboring reverse transcriptase K103N/Y181C double mutant infected in human MT4 cells assessed as inhibition of viral replication after 5 days by MTT assay. In kind it is functional, organism-based. The note with it: Human immunodeficiency virus 1, RES056, MT4, 120 h.
For data set [5], the system named is Human immunodeficiency virus 1. Put plainly: Potency index, ratio of etravirine EC50 to compound EC50 for HIV1 harboring reverse transcriptase E138K mutant infected in human MT4 cells. In kind it is functional.
Data set [6] can be described thus: Cytotoxicity against human MT4 cells assessed as decrease in cell viability after 5 days by MTT assay. In kind it is cell-based.
Data set [7] relates to Human immunodeficiency virus 1. Nature of the data set: Antiviral activity against HIV1 harboring reverse transcriptase F227L/V106A double mutant infected in human MT4 cells assessed as inhibition of viral replication after 5 days by MTT assay. It counts as functional, organism-based. The note with it: Human immunodeficiency virus 1, MT4, 120 h. In general terms: Formazan colour is commonly taken as a measure of viable cells.

Data set [8] concerns Human immunodeficiency virus 1. Put plainly: Antiviral activity against wild type HIV1 3B infected in human MT4 cells assessed as inhibition of virus-induced cytopathic effect after 5 days by MTT assay. In kind it is functional, organism-based. As to conditions: Human immunodeficiency virus 1, 3B, MT4, 120 h. On the technique in general: Cytopathic effects are the visible damage that an infection or toxin causes in cultured cells.

Data set [9] is described as follows: Selectivity index, ratio of CC50 for human MT4 cells to EC50 for wild type HIV1 3B. It counts as toxicity. The note with it: read-out: Ratio CC50/EC50.
For data set [10], the system named is Human immunodeficiency virus 1. Put plainly: Antiviral activity against HIV1 harboring reverse transcriptase Y188L mutant infected in human MT4 cells assessed as inhibition of viral replication after 5 days by MTT assay. As to conditions: Human immunodeficiency virus 1, MT4, 120 h. It counts as functional, organism-based.
Data set [11] relates to Human immunodeficiency virus 1. Put plainly: Potency index, ratio of etravirine EC50 to compound EC50 for HIV1 harboring reverse transcriptase L100I mutant infected in human MT4 cells. It counts as functional.
Data set [12] relates to Human immunodeficiency virus 1. Put plainly: Potency index, ratio of etravirine EC50 to compound EC50 for wild type HIV1 3B infected in human MT4 cells. In kind it is functional.
Data set [13] concerns Human immunodeficiency virus 1. Put plainly: Antiviral activity against HIV1 harboring reverse transcriptase K103N mutant infected in human MT4 cells assessed as inhibition of viral replication after 5 days by MTT assay. In kind it is functional, organism-based. As to conditions: Human immunodeficiency virus 1, MT4, 120 h.
Data set [14] relates to Human immunodeficiency virus 1. Nature of the data set: Antiviral activity against HIV1 harboring reverse transcriptase L100I mutant infected in human MT4 cells assessed as inhibition of viral replication after 5 days by MTT assay. As to conditions: Human immunodeficiency virus 1, MT4, 120 h. In kind it is functional, organism-based.
The target in data set [15] is Human immunodeficiency virus type 1 reverse transcriptase (Human immunodeficiency virus 1, UniProt Q72547). Nature of the data set: Inhibition of recombinant wild type HIV1 reverse transcriptase assessed as decrease in biotin-dUTP incorporation using DIG-labeled dUTP/biotin-labeled dUTP and dTTP as template and viral nucleotides after 1 hr by ELISA. (In general: In an ELISA, binding on a coated surface is turned into a signal by an enzyme label.)

The test system of data set [16] is Human immunodeficiency virus 1. Put plainly: Antiviral activity against HIV1 harboring reverse transcriptase Y181C mutant infected in human MT4 cells assessed as inhibition of viral replication after 5 days by MTT assay. It counts as functional, organism-based. The note with it: Human immunodeficiency virus 1, MT4, 120 h.
Data set [17] deals with Human immunodeficiency virus 2. Put plainly: Antiviral activity against HIV2 ROD infected in human MT4 cells assessed as inhibition of virus-induced cytopathic effect after 5 days by MTT assay. The note with it: ISOLATE ROD. In kind it is functional, organism-based.
For data set [18], the system named is Human immunodeficiency virus 1. Put plainly: Potency index, ratio of etravirine EC50 to compound EC50 for HIV1 harboring reverse transcriptase K103N mutant infected in human MT4 cells. It counts as functional.

In general, EC50 refers to the concentration that produces a half-maximal response. In general, CC50 refers to the concentration that lowers cell viability or growth by half. A word on the IC50: it is the concentration needed to halve the response being measured. With `Cc1cc(C#N)cc(C)c1Oc1nc(Nc2ccc(C#N)cc2)ncc1SCC(=O)NCCCN1CCOCC1`, the “Ratio EC50” value in [1] is listed as 1.5 - 3; in [2], 1.5 - 3; in [5] it was 1.5 - 3; in [11], 1.5 - 3; in data set [12], 1.5; in data set [18], 1.5 - 3. The EC50 was 6 nM in data set [3]; greater than 100 nM in [4]; greater than 100 nM in data set [7]; 2.6 nM in data set [8]; 16.2 nM in [10]; 1.4 nM in [13]. In addition, the EC50 in [14] is 6.5 nM; in data set [16], 11.6 nM. The half-maximal cytotoxic concentration (CC50) at 120 h in data set [6] was found to be 27200 nM. In [9], the selectivity ratio stood at 10000. The IC50 in [15] lay in the range of 84 to 86 nM. In addition, the inhibition entry in data set [17] was “inactive”.
